Experimental findings from patent US10004732B2 (Novartis AG, priority 2014, dated 2018) are described below.

By IC50 is commonly meant the concentration that gives 50% inhibition.

Data set [1] deals with T1, PI 3-kinase alpha (Homo sapiens, UniProt P42336). In words: Kinase Glo Luminescent Kinase Assay (Kglo), assay A. Conditions: read-out: Assay A PI3Kα IC50. Format: biochemical. For orientation: In Kinase-Glo more light means more ATP remaining.
Target sequence in this assay (P42336 whole entry): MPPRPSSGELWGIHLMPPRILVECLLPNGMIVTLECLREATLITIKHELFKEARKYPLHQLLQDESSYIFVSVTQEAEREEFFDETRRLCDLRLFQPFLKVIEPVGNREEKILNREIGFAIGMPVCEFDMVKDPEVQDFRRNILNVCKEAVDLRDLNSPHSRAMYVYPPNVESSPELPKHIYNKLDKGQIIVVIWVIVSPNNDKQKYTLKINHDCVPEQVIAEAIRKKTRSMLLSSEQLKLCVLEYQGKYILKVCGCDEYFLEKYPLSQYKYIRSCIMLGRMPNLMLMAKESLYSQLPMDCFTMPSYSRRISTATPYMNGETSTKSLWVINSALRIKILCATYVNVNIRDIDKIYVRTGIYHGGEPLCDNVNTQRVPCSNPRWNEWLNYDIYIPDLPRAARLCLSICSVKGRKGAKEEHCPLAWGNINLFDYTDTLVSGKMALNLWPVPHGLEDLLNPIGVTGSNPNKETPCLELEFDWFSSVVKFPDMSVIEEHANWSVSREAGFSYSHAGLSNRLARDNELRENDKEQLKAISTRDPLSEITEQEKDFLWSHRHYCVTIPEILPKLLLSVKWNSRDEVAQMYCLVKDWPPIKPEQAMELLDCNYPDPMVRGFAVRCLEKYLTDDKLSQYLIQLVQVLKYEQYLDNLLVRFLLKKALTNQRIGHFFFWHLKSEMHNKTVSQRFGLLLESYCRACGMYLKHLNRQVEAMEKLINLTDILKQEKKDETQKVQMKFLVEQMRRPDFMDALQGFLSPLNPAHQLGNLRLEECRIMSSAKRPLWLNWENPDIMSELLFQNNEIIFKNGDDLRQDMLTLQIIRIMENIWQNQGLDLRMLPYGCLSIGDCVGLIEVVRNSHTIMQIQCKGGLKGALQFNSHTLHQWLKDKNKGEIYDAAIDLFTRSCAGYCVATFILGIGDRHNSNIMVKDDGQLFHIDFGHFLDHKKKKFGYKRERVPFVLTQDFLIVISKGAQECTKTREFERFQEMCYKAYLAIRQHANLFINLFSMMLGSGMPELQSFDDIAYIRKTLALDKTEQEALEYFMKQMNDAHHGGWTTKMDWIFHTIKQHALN
The target in data set [2] is T1, PI 3-kinase alpha. In words: Cellular assay H2, p-AKT (Ser473) in Rat-1 cells, HTRF format. Format: cell-based. Conditions: asterisked data: version H2 (HTRF format), read-out: Assay H PI3Kα IC50. (In general: TR-FRET usually uses a lanthanide donor and a delayed reading to cut background.)
Target sequence in this assay (P42336 whole entry): as above
Target sequence in this assay (Q63787 whole entry partner): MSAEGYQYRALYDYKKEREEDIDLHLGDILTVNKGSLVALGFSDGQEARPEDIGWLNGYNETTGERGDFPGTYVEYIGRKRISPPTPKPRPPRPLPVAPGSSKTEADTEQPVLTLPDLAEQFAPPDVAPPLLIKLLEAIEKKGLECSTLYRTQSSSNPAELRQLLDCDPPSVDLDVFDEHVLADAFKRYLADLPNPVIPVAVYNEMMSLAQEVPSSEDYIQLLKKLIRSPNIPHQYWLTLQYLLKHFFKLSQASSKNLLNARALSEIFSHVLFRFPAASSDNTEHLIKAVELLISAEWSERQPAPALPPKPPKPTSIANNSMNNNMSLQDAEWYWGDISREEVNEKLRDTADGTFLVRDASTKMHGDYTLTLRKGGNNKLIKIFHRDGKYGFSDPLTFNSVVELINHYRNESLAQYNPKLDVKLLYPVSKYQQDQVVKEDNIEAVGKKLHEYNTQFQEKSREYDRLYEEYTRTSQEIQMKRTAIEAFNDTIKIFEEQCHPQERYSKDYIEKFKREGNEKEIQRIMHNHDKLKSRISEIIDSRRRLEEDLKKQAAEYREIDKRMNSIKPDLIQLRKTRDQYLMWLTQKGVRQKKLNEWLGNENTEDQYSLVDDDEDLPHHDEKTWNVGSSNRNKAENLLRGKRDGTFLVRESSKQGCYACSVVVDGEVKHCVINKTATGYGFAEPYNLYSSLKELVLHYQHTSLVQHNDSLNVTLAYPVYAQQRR
Experimental: (§1) Cellular Assays for PI 3-Kinase Alpha (H2), Beta (12) and Delta (J2): HTRF (Homogeneous Time Resolved Fluorescence) Format
(§2) All cell lines were cultivated in complete growth medium (DMEM high glucose GlutaMAX™ Pyruvate, 10% (v/v) fetal bovine serum, 0.1 mM MEM NEAA, 25 mM HEPES, puromycin 10 μg/mL, 100 U/ml Penicillin, 100 μg/ml Streptomycin) to 90% confluency at 37° C./5% CO2/90% humidity in a humidified CO2 incubator and were split twice a week.
(§3) Semi-automated preparation of cell lysates: For low (inhibited) controls, 0.9 mM NVP-BGT226-AF-1 in 90% (v/v) DMSO was added to the compound master plate. For compound testing, the cells were seeded at a density of 4000 (Rat-1_PI3Kdelta), 8000 (Rat-1_PI3Kalpha), or 6500 (Rat-1_PI3Kbeta) cells in 30 μl complete growth medium into cell culture treated 384-well plates and were grown at 37° C./5% CO2/90% humidity for 24 h. 10 μl of the compound predilutions were transferred to the cells.
Data set [3] in a line: Microsomal clearance assay (M). Conditions: intrinsic clearance in rat liver microsomes. On the technique in general: Liver microsomes are a subcellular fraction often used to study metabolism.
Experimental: (§4) The experiments were performed in 96-well glass plates at 37° C. on an automated Tecan EVO platform. Test compounds at a concentration of 10 mM in pure DMSO were diluted 1:1000 in water to 10 μM. […] Reactions were initiated by the addition of 150 μL of a cofactor solution containing 2 mM NADPH.
The target in data set [4] is PI 4-kinase beta (Homo sapiens, UniProt Q9UBF8). In words: Kinase Glo Luminescent Kinase Assay (Kglo), assay D. It counts as biochemical.
Data set [5] deals with T2, PI 3-kinase gamma (Homo sapiens, UniProt P48736). Kind of data set: TR-FRET Adapta assay, assay E. It counts as biochemical. The following applies: read-out: Assay E PI3Kγ IC50.
Experimental: TR-FRET Adapta Assay for PI 3-Kinase Gamma (E), PI 3-Kinase Delta (F)
The TR-FRET Adapta™ Universal Kinase Assay Kit was purchased from Invitrogen Corporation (Carlsbad/CA, USA) (Cat. No. PV5099).
PIK3CD substrate phosphatidylinositol (PI) was obtained from Invitrogen (vesicules consisting of 2 mM phosphatidylinositol (PI) in 50 mM HEPES pH7.5; Cat. No. PV5371). PIK3CG substrate phosphatidylinositol-4,5-bisphosphate (PIP(4,5)2 was obtained from Invitrogen (PIP2:PS large unilamellar vesicules consisting of 1 mM PIP2: 19 mM PS in 50 mM HEPES pH7.5, 3 mM MgCl2, 1 mM EGTA; Cat. No. PV5100).
Time-Resolved Fluorescence Resonance Energy Transfer (TR-FRET) is a technology based on energy transfer between two adjacent dyes, from an excited electron in one dye (the donor) to an electron of an adjacent dye (the acceptor) through resonance, then released as a photon. This energy transfer is detected by an increase in the fluorescence emission of the acceptor, and a decrease in the fluorescence emission of the donor. TR-FRET assays for protein kinases use a long-lifetime lanthanide Terbium or Europium chelates as the donor species which overcome interference from compound autofluorescence or light scatter from precipitated compounds, by introducing a delay after excitation by a flashlamp excitation source. Results are often expressed as a ratio of the intensities of the acceptor and donor fluorophores. The ratiometric nature of such a value corrects for differences in assay volumes between wells, as well as corrects for quenching effects due to colored compounds. The Adapta™ assay can be divided into two phases: a kinase reaction phase and an ADP detection phase. In the kinase reaction phase, all kinase reaction components are added to the well and the reaction is allowed to incubate for a set period of time specific for each kinase. […] In the presence of an inhibitor, the amount of ADP formed by the kinase reaction is reduced, and the resulting intact antibody-tracer interaction maintains a high TR-FRET signal.
50 nL of compound dilutions were dispensed onto white 384-well small volume polystyrene plate. Then 5 μL of either PI 3-kinase gamma or PI 3-kinase delta and lipid substrate (PI or PIP2:PS) followed by 5 μL of ATP (final assay volume 10 μL) are incubated at RT. The standard reaction buffer for the Adapta™ TR-FRET assay contained 10 mM Tris-HCl pH 7.5, 3 mM MgCl2, 50 mM NaCl, 1 mM DTT, 0.05% CHAPS 3-[(3-cholamidopropyl)dimethylammonio]-1-propanesulfonate).
Data are analyzed using Excel fit software or Graphpad Prism. IC50 values were derived by fitting a sigmoidal dose-response curve to a plot of assay readout over inhibitor concentration. All fits were performed with the program XLfit4 (ID Business Solutions, Guildford, UK). […] All fits were performed with the program XLfit4 (ID Business Solutions, Guildford, UK).
Data set [6] addresses T2, PI 3-kinase gamma. Kind of data set: Cellular U937 AKT assay K2 (HTRF). It counts as cell-based. The following applies: U937 cells, K2 format; read-out: Assay K2 PI3Kγ IC50.
Experimental: In assays K1 and K2, the compounds were tested for their ability to inhibit the production of phosphorylated AKT (Protein Kinase B) generated in a PI 3-kinase gamma isoform-dependent process in a U937 human cell line.
Cellular U937 AKT Assay for PI 3-Kinase Gamma (K2)
U937 cells are split every 3-4 days: 5×10^6 cells/flask (175 cm^2) in 40 ml.
Semi-automated preparation of cell lysates: Cells were resuspended in HBSS, seeded (200′000 cells/well/60 μl) into a 384-well plate and incubated in a humidified 37° C., 5% CO2 incubator for 1.5 hours. The compounds were diluted with HBSS and 40 μl were added to the starved cells (except for wells 24 I-P). […] The cells were then incubated for 30 minutes at 37° C. and 5% CO2. Stimulation occurred during 3 minutes by addition of 20 μl MIP1α (final 10 ng/ml, diluted in HBSS) in the incubator. Wells 24 A-H were only stimulated with HBSS.
The stimulation was then stopped by putting the cell plates on ice (filled with cold water). The cells were then centrifuged at 1200 rpm and 4° C. for 3 minutes.
80 μl of supernatant was removed. The cells were again centrifuged at 1200 rpm and 4° C. for 3 minutes. The supernatant was then removed by turning plates upside down and 30 μl of lysis buffer were added. The plate was incubated at room temperature for 30 minutes under shaking. 16 μl were then transferred to a ProxiPlate Plus 384-well. 4 μl of the master mix (each conjugate diluted 1:20 with detection reagent) were added to each well and the plate was kept in the dark at room temperature for 4 hours.
For data set [7], the target named is T3, PI 3-kinase beta (Homo sapiens, UniProt P42338). Kind of data set: Kinase Glo Luminescent Kinase Assay (Kglo), assay B. Format: biochemical. The following applies: read-out: Assay B PI3Kβ IC50.
Target sequence in this assay (P42338 whole entry): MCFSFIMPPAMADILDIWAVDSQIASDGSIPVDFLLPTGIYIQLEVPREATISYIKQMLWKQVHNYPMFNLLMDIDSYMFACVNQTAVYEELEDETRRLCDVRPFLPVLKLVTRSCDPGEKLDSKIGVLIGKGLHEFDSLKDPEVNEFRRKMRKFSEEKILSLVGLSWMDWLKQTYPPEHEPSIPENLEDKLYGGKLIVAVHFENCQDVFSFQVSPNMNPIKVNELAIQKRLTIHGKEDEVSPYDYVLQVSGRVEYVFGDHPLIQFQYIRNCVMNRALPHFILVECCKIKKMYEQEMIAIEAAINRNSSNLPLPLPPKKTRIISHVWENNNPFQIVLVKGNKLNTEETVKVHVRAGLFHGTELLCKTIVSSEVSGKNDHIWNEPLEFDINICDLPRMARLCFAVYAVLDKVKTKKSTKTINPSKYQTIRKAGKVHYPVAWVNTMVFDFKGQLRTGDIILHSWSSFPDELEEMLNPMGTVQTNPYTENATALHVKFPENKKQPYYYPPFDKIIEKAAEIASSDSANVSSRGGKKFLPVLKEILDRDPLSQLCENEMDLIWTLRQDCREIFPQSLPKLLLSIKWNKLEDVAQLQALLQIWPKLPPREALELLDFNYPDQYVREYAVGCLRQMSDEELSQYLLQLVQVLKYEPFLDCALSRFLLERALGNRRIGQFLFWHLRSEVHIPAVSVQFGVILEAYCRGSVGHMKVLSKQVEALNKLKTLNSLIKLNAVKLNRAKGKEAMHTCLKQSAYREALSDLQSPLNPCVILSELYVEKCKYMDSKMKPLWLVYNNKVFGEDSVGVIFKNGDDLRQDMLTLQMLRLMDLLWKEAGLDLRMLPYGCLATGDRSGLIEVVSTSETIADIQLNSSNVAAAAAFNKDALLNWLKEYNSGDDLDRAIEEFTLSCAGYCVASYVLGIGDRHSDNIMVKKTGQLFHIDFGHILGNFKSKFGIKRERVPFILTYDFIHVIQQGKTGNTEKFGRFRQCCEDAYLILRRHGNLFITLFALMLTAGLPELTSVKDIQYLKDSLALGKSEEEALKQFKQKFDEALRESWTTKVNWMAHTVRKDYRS
Target sequence in this assay (P27986 461-568 partner): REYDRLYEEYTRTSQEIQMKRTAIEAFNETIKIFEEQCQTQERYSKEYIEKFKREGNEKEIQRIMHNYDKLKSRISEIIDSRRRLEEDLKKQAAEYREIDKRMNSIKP
Data set [8] deals with T4, PI 3-kinase delta (Homo sapiens, UniProt O00329). Kind of data set: TR-FRET Adapta assay, assay F.
Target sequence in this assay (O00329 whole entry): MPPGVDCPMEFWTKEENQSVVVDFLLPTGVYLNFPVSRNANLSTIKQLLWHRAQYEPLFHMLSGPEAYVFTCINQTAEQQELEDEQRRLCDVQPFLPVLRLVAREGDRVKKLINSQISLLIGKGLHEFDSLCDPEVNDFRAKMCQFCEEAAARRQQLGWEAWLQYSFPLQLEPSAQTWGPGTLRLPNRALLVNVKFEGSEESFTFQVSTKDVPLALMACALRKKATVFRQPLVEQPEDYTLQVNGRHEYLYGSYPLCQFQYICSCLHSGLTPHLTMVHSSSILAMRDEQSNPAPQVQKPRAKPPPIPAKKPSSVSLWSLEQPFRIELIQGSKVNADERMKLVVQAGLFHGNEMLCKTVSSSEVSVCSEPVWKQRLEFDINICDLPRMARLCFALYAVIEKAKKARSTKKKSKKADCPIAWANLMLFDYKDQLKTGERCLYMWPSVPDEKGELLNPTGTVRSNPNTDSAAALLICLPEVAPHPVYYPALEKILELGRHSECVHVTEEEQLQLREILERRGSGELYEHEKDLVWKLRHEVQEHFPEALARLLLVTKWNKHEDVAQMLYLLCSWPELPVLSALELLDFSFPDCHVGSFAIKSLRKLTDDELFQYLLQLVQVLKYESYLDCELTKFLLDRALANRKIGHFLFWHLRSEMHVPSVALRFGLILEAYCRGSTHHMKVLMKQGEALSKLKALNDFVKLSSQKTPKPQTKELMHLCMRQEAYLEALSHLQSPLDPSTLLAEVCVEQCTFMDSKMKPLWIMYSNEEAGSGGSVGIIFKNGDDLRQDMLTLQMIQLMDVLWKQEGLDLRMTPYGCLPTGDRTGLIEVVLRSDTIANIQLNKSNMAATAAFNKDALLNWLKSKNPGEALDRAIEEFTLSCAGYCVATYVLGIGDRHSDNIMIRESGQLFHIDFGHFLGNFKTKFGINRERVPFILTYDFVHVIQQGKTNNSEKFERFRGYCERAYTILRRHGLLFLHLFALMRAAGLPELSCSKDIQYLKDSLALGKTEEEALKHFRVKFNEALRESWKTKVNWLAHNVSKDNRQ
Target sequence in this assay (P27986 461-568 partner): as the sequence (P27986 461-568 partner) above
Data set [9] concerns the target T3, PI 3-kinase beta. In words: Cellular assay I2, p-AKT (Ser473) in Rat-1 cells, HTRF format. Format: cell-based. Conditions: asterisked data: version I2 (HTRF format), read-out: Assay I PI3Kβ IC50.
Target sequence in this assay (P42338 whole entry): as the sequence (P42338 whole entry) above
Target sequence in this assay (Q63787 whole entry partner): as the sequence (Q63787 whole entry partner) above
Experimental: as §1, §2, §3
The target of data set [10] is T4, PI 3-kinase delta. In words: Cellular assay J2, p-AKT (Ser473) in Rat-1 cells, HTRF format. Format: cell-based. Conditions: asterisked data: version J2 (HTRF format), read-out: Assay J PI3Kδ IC50.
Target sequence in this assay (O00329 whole entry): as the sequence (O00329 whole entry) above
Target sequence in this assay (Q63787 whole entry partner): as the sequence (Q63787 whole entry partner) above
Experimental: as §1, §2, §3
The test system of data set [11] is IL-8-induced neutrophil shape change in human whole blood. In words: Whole blood neutrophil shape change assay (L). Format: cell-based. Conditions: Homo sapiens, Neutrophil, IL-8, human whole blood, read-out: Assay L WBSC IC50.
In data set [12] the target is Vps34 (Homo sapiens, UniProt Q8NEB9). Kind of data set: Kinase Glo Luminescent Kinase Assay (Kglo), assay C. It counts as biochemical.
Data set [13] addresses T1, PI 3-kinase alpha. Kind of data set: Cellular assay H1, p-Akt (S473) in Rat-1 cells, Surefire format. Format: cell-based.
Target sequence in this assay (P42336 whole entry): as the sequence (P42336 whole entry) above
Target sequence in this assay (Q63787 whole entry partner): as the sequence (Q63787 whole entry partner) above
Data set [14] concerns the target T2, PI 3-kinase gamma. Kind of data set: Cellular U937 AKT assay K1 (MSD). It counts as cell-based. Conditions: U937 cells, K1 format; read-out: Assay K1 PI3Kγ IC50.
Data set [15] has as its target T3, PI 3-kinase beta. In words: Cellular assay I1, p-Akt (S473) in Rat-1 cells, Surefire format. It counts as cell-based.
Target sequence in this assay (P42338 whole entry): as the sequence (P42338 whole entry) above
Target sequence in this assay (Q63787 whole entry partner): as the sequence (Q63787 whole entry partner) above
The conditions of data set [16]: rat, microsomes, 1 µM, pH 7.4.
Experimental: as §4
The target of data set [17] is mTOR (Homo sapiens, UniProt P42345). In words: Lanthascreen kinase binding assay, assay G.
Experimental: Lanthascreen™ Kinase Binding Assay for mTOR (G)
Binding of an inhibitor to the kinase competes for binding with the tracer, resulting in a loss of FRET.
50 nL of compound dilutions were dispensed onto white 384-well small volume polystyrene plate.
For data set [18], the target named is T4, PI 3-kinase delta. Kind of data set: Cellular assay J1, p-Akt (S473) in Rat-1 cells, Surefire format. It counts as cell-based.
Target sequence in this assay (O00329 whole entry): as the sequence (O00329 whole entry) above
Target sequence in this assay (Q63787 whole entry partner): as the sequence (Q63787 whole entry partner) above
Setting [19] is: non-asterisked data: version H1 (Surefire format), Rat-1 cells, read-out: Assay H PI3Kα IC50.
Setting [20] is: non-asterisked data: version I1 (Surefire format), Rat-1 cells, read-out: Assay I PI3Kβ IC50.
[21] abbreviates: non-asterisked data: version J1 (Surefire format), Rat-1 cells, read-out: Assay J PI3Kδ IC50.

Read-outs that look alike come from different tables or passages of the source. Bounds are passed on as bounds.

For `Cc1ncc(-c2nc(-c3cc(S(=O)(=O)NC[C@H]4CCCO4)ccc3C)cnc2N)s1` (single isomer, unassigned) [Example 45.6a, (R)-3-(5-Amino-6-(2-methylthiazol-5-yl)pyrazin-2-yl)-4-methyl-N-((tetrahydrofuran-2-yl)methyl)benzenesulfonamide or (S)-3-(5-Amino-6-(2-methylthiazol-5-yl)pyrazin-2-yl)-4-methyl-N-((tetrahydrofuran-2-yl)methyl)benzenesulfonamide], the IC50 in data set [1] is 0.07 µM; in [2], 0.82 µM; in [4] (read-out: Assay D PI4Kβ IC50) it was 4.1 µM; in [5] it was 0.009 µM. Further, the “Assay M RLM CI(int)” value in data set [3] stood at 228 µL/min/mg.
The matching figures for `Cc1ncc(-c2nc(-c3cc(S(=O)(=O)NC[C@H]4CCCO4)ccc3C)cnc2N)s1` (single isomer, unassigned) [Example 45.6b, (R)-3-(5-Amino-6-(2-methylthiazol-5-yl)pyrazin-2-yl)-4-methyl-N-((tetrahydrofuran-2-yl)methyl)benzenesulfonamide or (S)-3-(5-Amino-6-(2-methylthiazol-5-yl)pyrazin-2-yl)-4-methyl-N-((tetrahydrofuran-2-yl)methyl)benzenesulfonamide]: 0.38 µM, 1.76 µM, more than 10 µM, 0.042 µM and 237 µL/min/mg.
Take `Cc1ncc(-c2nc(-c3cc(S(=O)(=O)N[C@H]4C[C@@H](O)C4)ccc3C)cnc2N)s1` [Example 43a, cis-3-(5-Amino-6-(2-methylthiazol-5-yl)pyrazin-2-yl)-N-(3-hydroxycyclobutyl)-4-methylbenzenesulfonamide]: the IC50 is 0.1 µM in data set [1]; 0.068 µM in [6]; 2.14 µM in data set [2]; 0.69 µM in [7]; 0.67 µM in data set [8]; 2.3 µM in data set [4] (read-out: Assay D PI4Kβ IC50). Also, the IC50 came to 0.026 µM in [5]; 4.56 µM in [9]; 0.97 µM in data set [10]; 0.992 µM in data set [11]; 2.5 µM in data set [12] (read-out: Assay C VPS34 IC50). For the same molecule, in data set [3], the “Assay M RLM CI(int)” value amounted to 63 µL/min/mg.
With `Cc1ncc(-c2nc(-c3cc(S(=O)(=O)N[C@H]4C[C@H](O)C4)ccc3C)cnc2N)s1` [Example 43b, trans-3-(5-Amino-6-(2-methylthiazol-5-yl)pyrazin-2-yl)-N-(3-hydroxycyclobutyl)-4-methylbenzenesulfonamide], the IC50 in data set [1] stood at 0.23 µM; in data set [6], 0.18 µM; in [2], 5.44 µM; in data set [7], 1.5 µM; in data set [8] it was 2.2 µM; in data set [4] (read-out: Assay D PI4Kβ IC50) it was 4.8 µM. Further, the IC50 is 0.042 µM in data set [5], 2.95 µM in data set [9], 2.18 µM in [10] and 5.5 µM in [12] (read-out: Assay C VPS34 IC50). In data set [3], the “Assay M RLM CI(int)” value amounted to 45 µL/min/mg.
As for `Cc1ncc(-c2nc(-c3cc(S(=O)(=O)NCC4CCCCO4)ccc3C)cnc2N)s1` (stereo not shown) [Example 45.4, 3-(5-Amino-6-(2-methylthiazol-5-yl)pyrazin-2-yl)-4-methyl-N-((tetrahydro-2H-pyran-2-yl)methyl)benzenesulfonamide], the IC50 in data set [1] came to 0.11 µM; in [2], 1.23 µM; in data set [7], 0.88 µM; in [8] (read-out: Assay F PI3Kδ IC50) it was 0.1 µM; in [4] (read-out: Assay D PI4Kβ IC50) it was 1.8 µM; in data set [5], 0.009 µM. Also, the IC50 in data set [9] was 2.13 µM; in data set [10], 0.58 µM; in data set [12] (read-out: Assay C VPS34 IC50) it was 3 µM. Further, the “Assay M RLM CI(int)” value in data set [3] was determined as 502 µL/min/mg.
As for `Cc1ncc(-c2nc(-c3cc(S(=O)(=O)NCC4(CO)CCOCC4)ccc3C)cnc2N)s1` [Example 45.9, 3-(5-Amino-6-(2-methylthiazol-5-yl)pyrazin-2-yl)-N-((4-(hydroxymethyl)tetrahydro-2H-pyran-4-yl)methyl)-4-methylbenzenesulfonamide], the half-inhibitory concentration (IC50) in data set [1] came out at 0.03 µM; in data set [6] it was 0.033 µM; in data set [2], 0.35 µM; in data set [7], 0.32 µM; in [8] (read-out: Assay F PI3Kδ IC50), 0.1 µM; in data set [4] (read-out: Assay D PI4Kβ IC50), 4.9 µM. The IC50 in data set [5] was 0.039 µM; in [9] it was 0.88 µM; in data set [10], 0.28 µM. Also, the “Assay M RLM CI(int)” value in data set [3] is 83 µL/min/mg.
For the molecule `Cc1ccc(S(=O)(=O)NC2CCOCC2)cc1-c1cnc(N)c(-n2cncn2)n1` [Example 68, 3-(5-Amino-6-(1H-1,2,4-triazol-1-yl)pyrazin-2-yl)-4-methyl-N-(tetrahydro-2H-pyran-4-yl)benzenesulfonamide], the half-inhibitory concentration (IC50) in data set [1] came to 0.64 µM; in [13] it was 2.84 µM; in [7], 2.55 µM; in data set [14], 0.43 µM; in [15], 6.25 µM; in data set [8] (read-out: Assay F PI3Kδ IC50), 1.5 µM. The IC50 is 4.4 µM in data set [4] (Assay D PI4Kβ IC50 (μM)); 0.072 µM in data set [5]; 8.75 µM in data set [17] (Assay G mTOR IC50 (μM)); 1.79 µM in data set [11]; 3.11 µM in data set [18]; more than 10 µM in [12]. Besides, in data set [16], the “Assay M RLM CI(int)” value was 54 µL/min/mg.
For the molecule `Cc1cc(F)c(S(=O)(=O)NCC(C)(C)O)cc1-c1cnc(N)c(-n2cncn2)n1` [Example 122, 5-(5-Amino-6-(1H-1,2,4-triazol-1-yl)pyrazin-2-yl)-2-fluoro-N-(2-hydroxy-2-methylpropyl)-4-methylbenzenesulfonamide], the 50% inhibitory concentration (IC50) in [1] was 0.49 µM; in data set [6], 0.296 µM; in [13] (setting [19]), 2.28 µM; in data set [7] it was 2.2 µM; in data set [14] it was 0.151 µM; in [15] (setting [20]), 1.49 µM. Moreover, the IC50 in data set [8] (read-out: Assay F PI3Kδ IC50) came out at 1.6 µM; in data set [4] (read-out: Assay D PI4Kβ IC50), 1.9 µM; in data set [5] it was 0.085 µM; in data set [17] (read-out: Assay G mTOR IC50), 6.6 µM; in [11], 0.988 µM; in data set [18] (setting [21]) it was 1.19 µM. The IC50 in data set [12] (read-out: Assay C VPS34 IC50) was more than 10 µM. For the same molecule, the “Assay M RLM CI(int)” value in [3] is 26 µL/min/mg.
On to `Cc1ncc(-c2nc(-c3cc(S(=O)(=O)NCC(C)(C)O)ccc3C)cnc2N)o1` [Example 126, 3-(5-Amino-6-(2-methyloxazol-5-yl)pyrazin-2-yl)-N-(2-hydroxy-2-methylpropyl)-4-methylbenzenesulfonamide], for which the IC50 is 0.28 µM in data set [1]; 4 µM in data set [2]; 3.1 µM in data set [7]; 1 µM in [8] (read-out: Assay F PI3Kδ IC50); more than 10 µM in [4] (read-out: Assay D PI4Kβ IC50); 0.057 µM in [5]. Also, the IC50 in data set [9] was more than 10 µM; in [10], 4.24 µM; in [12] (read-out: Assay C VPS34 IC50), more than 10 µM. Besides, in [3], the “Assay M RLM CI(int)” value amounted to 20 µL/min/mg.
In the case of `Cc1ccc(S(=O)(=O)NCC2(O)CCCC2)cc1-c1cnc(N)c(-n2cncn2)n1` [Example 127.35], the IC50 in data set [1] is 0.33 µM; in [6], 0.391 µM; in data set [13] (setting [19]) it was more than 10 µM; in [7], 1.1 µM; in data set [14] it was 0.085 µM; in data set [15] (setting [20]), 2.05 µM. The half-maximal inhibitory concentration (IC50) was 0.81 µM in [8] (read-out: Assay F PI3Kδ IC50); 6.3 µM in data set [4] (read-out: Assay D PI4Kβ IC50); 0.05 µM in data set [5]; 7.1 µM in data set [17] (read-out: Assay G mTOR IC50); 0.847 µM in [11]; more than 10 µM in [18] (setting [21]). For the same molecule, the IC50 in data set [12] (read-out: Assay C VPS34 IC50) was more than 10 µM. Also, the “Assay M RLM CI(int)” value in [3] stood at 202 µL/min/mg.
With `Cc1ccc(S(=O)(=O)NC2CC2)cc1-c1cnc(N)c(-n2cncn2)n1` [Example 127.53], the half-maximal inhibitory concentration (IC50) in [1] is 0.43 µM; in data set [6], 0.198 µM; in data set [13] (setting [19]), 0.65 µM; in data set [7], 1.4 µM; in [14] it was 0.172 µM; in [15] (setting [20]) it was more than 3 µM. Also, the IC50 in data set [8] (read-out: Assay F PI3Kδ IC50) was 1.4 µM; in [4] (read-out: Assay D PI4Kβ IC50) it was 1.7 µM; in data set [5], 0.025 µM; in data set [17] (read-out: Assay G mTOR IC50), 3.9 µM; in data set [11], 1.86 µM; in data set [18] (setting [21]) it was 6.51 µM. Moreover, the IC50 in data set [12] (read-out: Assay C VPS34 IC50) was more than 10 µM. In data set [3], the “Assay M RLM CI(int)” value came to 129 µL/min/mg.
